In ChEMBL document CHEMBL1201862, “PubChem BioAssay data set” (2004):
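Where inhibition never reached the appropriate level, the endpoint shown equals the highest concentration tested. Otherwise, values were interpolated linearly from a five-concentration, 48-hour dose response in 96-well plates. GI50 = concentration required for 50% inhibition of growth.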 Activity calls are given as the source filed them. No stated cut-off is given here; in the data, active = GI50 up to about 1.1 µM and inactive = higher.

How the values were obtained:
Test in all cases: NCI anticancer screen, dose series, 48 h
NCI/ADR-RES = test system: NCI/ADR-RES
M14 = test system: M14
OVCAR-5 = test system: OVCAR-5
SW-620 = test system: SW-620
HT-29 = test system: HT-29
TK-10 = test system: TK-10
UACC-257 = test system: UACC-257
IGROV-1 = test system: IGROV-1
MDA-N = test system: MDA-N
T47D = test system: T47D
SF-268 = test system: SF-268
SR = test system: SR
SK-MEL-28 = test system: SK-MEL-28
SK-OV-3 = test system: SK-OV-3
UO-31 = test system: UO-31
SK-MEL-5 = test system: SK-MEL-5
A498 = test system: A498
CAKI-1 = test system: CAKI-1
EKVX = test system: EKVX
HCC 2998 = test system: HCC 2998

Compound | GI50 (NCI/ADR-RES) | GI50 (M14) | GI50 (OVCAR-5) | GI50 (SW-620) | GI50 (HT-29) | GI50 (TK-10) | GI50 (UACC-257) | GI50 (IGROV-1) | GI50 (MDA-N) | GI50 (T47D) | GI50 (SF-268) | GI50 (SR) | GI50 (SK-MEL-28) | GI50 (SK-OV-3) | GI50 (UO-31) | GI50 (SK-MEL-5) | GI50 (A498) | GI50 (CAKI-1) | GI50 (EKVX) | GI50 (HCC 2998)
Cn1c(=S)c2nc(SCCN3CCCC3)[nH]c2n(C)c1=O | > 100 µM (inactive) | > 100 µM (inactive) | > 100 µM (inactive) | > 100 µM (inactive) | > 100 µM (inactive) | > 100 µM (inactive) | > 100 µM (inactive) | > 100 µM (inactive) | > 100 µM (inactive) | > 100 µM (inactive) | > 100 µM (inactive) | > 100 µM (inactive) | > 100 µM (inactive) | > 100 µM (inactive) | > 100 µM (inactive) | > 100 µM (inactive) | > 100 µM (inactive) | > 100 µM (inactive) | 76 µM (inactive) | 
Clc1ccc(/C(=C\c2ccccc2)Cn2ccnc2)cc1 | 14.6 µM (inactive) | 19.6 µM (inactive) | 19.8 µM (inactive) | 29.5 µM (inactive) | 15.5 µM (inactive) | 35.6 µM (inactive) | 19.3 µM (inactive) | 19.6 µM (inactive) | 14.9 µM (inactive) | 19.2 µM (inactive) | 4.25 µM (inactive) | 3.46 µM (inactive) | 13.3 µM (inactive) | 16.5 µM (inactive) | 5.28 µM (inactive) | 12.8 µM (inactive) | 15.3 µM (inactive) | 7.21 µM (inactive) | 21.9 µM (inactive) | 21.3 µM (inactive)
CN1CCC23c4c5ccc(Oc6nnnn6-c6ccccc6)c4OC2c2[nH]c4ccccc4c2CC3(O)C1C5 (stereo unspecified) | 5.37 µM (inactive) | 1.85 µM (inactive) | 17.2 µM (inactive) | 2.44 µM (inactive) | 2.38 µM (inactive) | 1.87 µM (inactive) | 1.83 µM (inactive) | 8.83 µM (inactive) | 1.73 µM (inactive) | 6.71 µM (inactive) | 6.89 µM (inactive) | 1.64 µM (inactive) | 2.1 µM (inactive) | 9.66 µM (inactive) | 1.75 µM (inactive) | 2.29 µM (inactive) | 2.4 µM (inactive) | 2.16 µM (inactive) | 9.64 µM (inactive) | 1.81 µM (inactive)
CCOC(=O)c1c(N2CCOCC2)[nH]c(=O)c(C(c2cccs2)c2c(O)c(C(=O)OCC)c(N3CCOCC3)[nH]c2=O)c1O | > 100 µM (inactive) | > 100 µM (inactive) | > 100 µM (inactive) | > 100 µM (inactive) | > 100 µM (inactive) | > 100 µM (inactive) | > 100 µM (inactive) |  | > 100 µM (inactive) | > 100 µM (inactive) | > 100 µM (inactive) | > 100 µM (inactive) | > 100 µM (inactive) | > 100 µM (inactive) | > 100 µM (inactive) | > 100 µM (inactive) | > 100 µM (inactive) | > 100 µM (inactive) | > 100 µM (inactive) | > 100 µM (inactive)
COC(=O)/C(=N/NC(N)=O)C(C(=O)C(=O)Nc1ccc(C)cc1)c1nc2ccc(C(=O)c3ccccc3)cc2nc1O (stereo unspecified) | 39.3 µM (inactive) | > 100 µM (inactive) | > 100 µM (inactive) | > 100 µM (inactive) | 80.9 µM (inactive) | > 100 µM (inactive) | > 100 µM (inactive) | 23.7 µM (inactive) | 64.1 µM (inactive) | 41.9 µM (inactive) | > 100 µM (inactive) | 1.53 µM (inactive) | > 100 µM (inactive) | > 100 µM (inactive) | 30.5 µM (inactive) | > 100 µM (inactive) | 18.9 µM (inactive) | 88.9 µM (inactive) | 33.4 µM (inactive) | 34.2 µM (inactive)
CCOC(=O)C(C(=O)OCC)=C1SC(=N\c2ccccc2)/C(=N/c2ccccc2)N1c1ccccc1 | > 100 µM (inactive) |  | > 100 µM (inactive) |  | 82.2 µM (inactive) |  |  | > 100 µM (inactive) | > 100 µM (inactive) | > 100 µM (inactive) | 48.3 µM (inactive) | > 100 µM (inactive) | > 100 µM (inactive) | > 100 µM (inactive) | > 100 µM (inactive) | 52.1 µM (inactive) | > 100 µM (inactive) | > 100 µM (inactive) | > 100 µM (inactive) | 45.8 µM (inactive)
O=[N+]([O-])c1cccc2nc3ccccc3c(NCCCCCNc3c4ccccc4nc4cccc([N+](=O)[O-])c34)c12 | 0.168 µM (active) | 0.0607 µM (active) | 0.209 µM (active) | 0.0158 µM (active) | 0.0195 µM (active) | 0.0242 µM (active) | 0.139 µM (active) | 0.202 µM (active) | 0.0536 µM (active) | 0.179 µM (active) | 0.0313 µM (active) | 0.00271 µM (active) | 0.171 µM (active) | 0.19 µM (active) | 0.134 µM (active) | 0.0895 µM (active) | 0.111 µM (active) | 0.0476 µM (active) | 0.133 µM (active) | 0.0243 µM (active)
COc1cc(C2C(Cl)C(=O)N2c2ccc(Br)cc2)cc(I)c1O (stereo unspecified) | 33.5 µM (inactive) | 33 µM (inactive) | 87.7 µM (inactive) | > 100 µM (inactive) | 87.1 µM (inactive) | 90.8 µM (inactive) | 57 µM (inactive) | 1.54 µM (inactive) | 36.6 µM (inactive) | 23.8 µM (inactive) | 89.1 µM (inactive) | 29.2 µM (inactive) |  | 92.9 µM (inactive) | 31.1 µM (inactive) | 43.2 µM (inactive) | > 100 µM (inactive) | 47.9 µM (inactive) | 20.7 µM (inactive) | 
COc1cc2c(cc1O)-c1c(OC)c(O)cc3c1C(C2)N(C)CC3 (stereo unspecified) | > 100 µM (inactive) | > 100 µM (inactive) | > 100 µM (inactive) | > 100 µM (inactive) | > 100 µM (inactive) | > 100 µM (inactive) | > 100 µM (inactive) | > 100 µM (inactive) | > 100 µM (inactive) | > 100 µM (inactive) | > 100 µM (inactive) | > 100 µM (inactive) |  | > 100 µM (inactive) | > 100 µM (inactive) | > 100 µM (inactive) | > 100 µM (inactive) | > 100 µM (inactive) | > 100 µM (inactive) | 
O=C(Nc1ccc(Cl)cc1)c1cc2c(cc1Cl)Sc1nccn1S2(=O)=O | 56.5 µM (inactive) | > 100 µM (inactive) | > 100 µM (inactive) | 27.5 µM (inactive) | > 100 µM (inactive) |  |  | 60.1 µM (inactive) | 28.8 µM (inactive) | > 100 µM (inactive) | 27.5 µM (inactive) | > 100 µM (inactive) | 40.5 µM (inactive) | 64 µM (inactive) |  | 44.7 µM (inactive) | 29.6 µM (inactive) | 40.7 µM (inactive) | 69 µM (inactive) | 76.7 µM (inactive)
CCOC(=O)C(=CN1CCNC1=S)C(=O)OCC | > 100 µM (inactive) | > 100 µM (inactive) | > 100 µM (inactive) | > 100 µM (inactive) | > 100 µM (inactive) |  | > 100 µM (inactive) | > 100 µM (inactive) | > 100 µM (inactive) | > 100 µM (inactive) |  | > 100 µM (inactive) | > 100 µM (inactive) | > 100 µM (inactive) |  | > 100 µM (inactive) | 18.2 µM (inactive) | > 100 µM (inactive) | > 100 µM (inactive) | > 100 µM (inactive)
N#CC(C/C=C/c1ccccc1)NNC(=O)c1c(Cl)c(Cl)c(Cl)c(Cl)c1-c1nc2cc(C(=O)c3ccccc3)ccc2[nH]1 (stereo unspecified) | 12.9 µM (inactive) | 14.9 µM (inactive) | 28.9 µM (inactive) | 22.8 µM (inactive) | 16.1 µM (inactive) | 22.8 µM (inactive) | 25.5 µM (inactive) | 18.2 µM (inactive) | 3.24 µM (inactive) | 12 µM (inactive) |  | 6.58 µM (inactive) | 16.3 µM (inactive) | 16.9 µM (inactive) | 21.5 µM (inactive) | 10.2 µM (inactive) | 9.23 µM (inactive) | 31.4 µM (inactive) | 15.1 µM (inactive) | 
CC(=O)Oc1ccc(/C=C/C(=O)O[C@H]2CCCC[C@@H]2OC(=O)/C=C/c2ccc(OC(C)=O)c(OC(C)=O)c2)cc1OC(C)=O | 19.2 µM (inactive) | 7.14 µM (inactive) | 12.3 µM (inactive) | 2.24 µM (inactive) | 5.47 µM (inactive) | 6.93 µM (inactive) | 11.8 µM (inactive) | 4.09 µM (inactive) | 8.97 µM (inactive) | 11.5 µM (inactive) | 8.17 µM (inactive) | 4.34 µM (inactive) | 12.8 µM (inactive) | 11.8 µM (inactive) | 3.54 µM (inactive) | 4.69 µM (inactive) | 18.5 µM (inactive) | 5.41 µM (inactive) | 17.1 µM (inactive) | 13.8 µM (inactive)
COC(=O)NCCc1n[nH]c2c1C(=O)C=C(Nc1ccccc1)C2=O | 28.5 µM (inactive) | 33.4 µM (inactive) | 29 µM (inactive) | 25.6 µM (inactive) | 24.1 µM (inactive) | > 100 µM (inactive) | 16.7 µM (inactive) | 24.5 µM (inactive) | 17.9 µM (inactive) | 30.1 µM (inactive) | 26 µM (inactive) | 10.9 µM (inactive) |  | 74.6 µM (inactive) | 35.3 µM (inactive) | 17.9 µM (inactive) | 47.2 µM (inactive) | 46.1 µM (inactive) | 27.3 µM (inactive) | 38.2 µM (inactive)
